A short description of series [1]: Stability in aqueous solution followed by capillary electrophoresis. The conditions noted are these: water; CE, samples at 37 °C. In kind it is physicochemical. The protocol:
The stability of complexes 1–4 was tested in an aqueous solution, to investigate how the different ways of amino acid coordination impacts aqueous degradation (see Table 4). The stability of complex 5 was previously measured in a 50% methanolic solution.[4]
(§1) A solution of sodium tetraborate (final borate concentration of 50 mM) and sodium dodecyl sulfate (100 mM) was used as a background electrolyte (BGE). The pH of the BGE was adjusted to 9.3 by titration with 1 M NaOH. Every new capillary was rinsed with 1 M NaOH (45 min), water (45 min), and BGE (45 min) before the first use. The capillary was kept on a constant temperature of 25 °C, whereas the sample carousel was temperature-controlled at 37 °C. Sample injection was performed in hydrodynamic mode, applying a pressure of 50 mbar for 2 s on the inlet vial. The separation voltage was set at +20 kV. If not stated differently, a wavelength of 195 nm was employed for the DAD detector. The analytic window was evaluated by using dodecaphenone as a micellar marker and methanol (HPLC grade) as an electroosmotic flow (EOF) marker. The run time required for the analysis was estimated to be 25 min. The capillary was flushed before every run with 0.1 M NaOH (3 min), water (3 min), and BGE (5 min). Every value is calculated from at least three independent measurements. The half-lives were presented as the mean ± standard deviation. All of the samples, buffers, and washing solutions were membrane-filtered (0.22 μm pore size). All samples employed for stability experiments were prepared using benzoic acid as an internal standard (IS).

Series [2] is described as follows: Stability in concentrated trimethylglycine (TMG) aqueous solution followed by capillary electrophoresis. Type of series: physicochemical. The conditions noted are these: dissolved in 50% w/v TMG, diluted to final TMG 25%; CE at 230 nm.
Excerpt: Kadokawa et al.[35] reported that a highly concentrated solution of trimethyl glycine (TMG, also known as betaine) is able to improve the solubility of cisplatin in water without affecting the pharmacological proprieties of this drug. The mechanism behind this effect seems to lie in the hydrogen bond acceptor property of the carboxylate of TMG, which establishes hydrogen bonds with the amino groups of cisplatin. Betaine is a nontoxic compound and is highly soluble in water. On the basis of this study, we decided to test the solubility of 3 in a highly concentrated (50% w/v) TMG aqueous solution. The platinum compound was soluble enough to allow investigations with the established protocol for capillary electrophoresis. TMG has a strong absorption at low wavelengths, and therefore, a wavelength of 230 nm was chosen instead of 195 nm for recording the electropherograms with TMG.
as §1

Series [3] concerns MCF-7 breast cancer cell line. The experiment in a line: MTT metabolic activity (cytotoxicity) assay, MCF-7. In kind it is cell-based. Particulars: 72 h incubation. As for the experimental part:
(§2) In order to determine the antitumor activity of the platinum complexes, in vitro cytotoxicity tests were performed. Compounds 1–4 were tested with cisplatin as a reference on the breast cancer cell line MCF-7 and the colon carcinoma cell line HT-29. Complexes 1, 4, and 5, as well as the ligand (but-3-en-1-yl 2-acetoxybenzoate, 6) were additionally evaluated on MDA-MB-231 cells and A2780cis cells, also using cisplatin as a reference. The metabolic activity as an indicator of cytotoxicity was determined by a classical 3-(4,5-dimethylthiazol-2-yl)-2,5-diphenyltetrazoliumbromid (MTT) assay.
(§3) The cell lines A2780cis and MDA-MB-231 were cultivated in RPMI 1640 without phenol red (PAN Biotech, Aidenbach, Germany), supplemented with L-glutamine (2 mM), 100 μg/mL penicillin, 100 μg/mL streptomycin, and FCS (10%) (all from Invitrogen Corporation, Gibco, Paisley, Scotland) at 37 °C in a 5% CO2/95% air atmosphere, and passaged twice per week. To maintain resistance, A2780cis cells were incubated every second week with cisplatin (1 μM). The cell lines MCF-7 and HT-29 were grown in DMEM without phenol red (PAN Biotech, Aidenbach, Germany), containing L-glutamine, 100 μg/mL penicillin, 100 μg/mL streptomycin, sodium pyruvate ([…]) (PAN Biotech), and FCS (10%) under the same conditions as the other cell lines.
(§4) The exponentially growing cell lines were seeded at a density of 2000 cells/well for MCF-7 cells, 4000 cells/well for HT-29 cells and MDA-MB-231 cells, and 8000 cells/well for A2780cis cells, respectively, into clear flat-bottom 96-well plates in triplicates. Following 24 h of incubation for adherence at 37 °C in a humidified atmosphere (5% CO2/95% air), the compounds were added to reach the desired concentrations between 10 and 100 μM, respectively. All stock solutions were prepared in dimethylformamide at a concentration of 100 mM and were then diluted with the respective cell-culture medium to the appropriate concentrations. After another 72 h of incubation, the cellular metabolic activity was measured by employing a MTT assay. Hereby, the yellow tetrazolium salt is converted to a purple formazan salt by the functioning mitochondria. These purple crystals are then dissolved in DMSO and can be quantified via absorption measurements at 570 and 420 nm. The optical density of the particular medium was subtracted in order to exclude the unspecific staining caused by the FCS-containing medium. The values were calculated with Excel 2019 (Microsoft, Redmond, WA, USA) using nonlinear regression and the decal logarithm of the inhibitor versus variable slope equation, while the top constraint was set to 100%.

Series [4] relates to HT-29 colon carcinoma cell line. The experiment in a line: MTT metabolic activity (cytotoxicity) assay, HT-29. In kind it is cell-based. Particulars: 72 h incubation. As for the experimental part:
as §2, §3, §4

The nature of series [5]: Lipophilicity estimate from MEKC experiments (buffer/micelle partition). In kind it is physicochemical. Particulars: three independent experiments (one for 5 and 6). The protocol:
The lipophilicity of the tested compounds was estimated on the basis of MEKC experiments similar to Herbert and Dorsey[37] (see Table 7). The values estimated in this way were compared with theoretical values obtained from two different methods: for platinum complexes, a previously established method[38] was used, while for the organic ligand, the Osiris Property Explorer[39] was employed.
as §1

In a further series the target is T1, human recombinant COX-1 (Homo sapiens, UniProt P23219).
T1 construct: purchased Cayman Chemicals
T1 sequence (P23219 24-599): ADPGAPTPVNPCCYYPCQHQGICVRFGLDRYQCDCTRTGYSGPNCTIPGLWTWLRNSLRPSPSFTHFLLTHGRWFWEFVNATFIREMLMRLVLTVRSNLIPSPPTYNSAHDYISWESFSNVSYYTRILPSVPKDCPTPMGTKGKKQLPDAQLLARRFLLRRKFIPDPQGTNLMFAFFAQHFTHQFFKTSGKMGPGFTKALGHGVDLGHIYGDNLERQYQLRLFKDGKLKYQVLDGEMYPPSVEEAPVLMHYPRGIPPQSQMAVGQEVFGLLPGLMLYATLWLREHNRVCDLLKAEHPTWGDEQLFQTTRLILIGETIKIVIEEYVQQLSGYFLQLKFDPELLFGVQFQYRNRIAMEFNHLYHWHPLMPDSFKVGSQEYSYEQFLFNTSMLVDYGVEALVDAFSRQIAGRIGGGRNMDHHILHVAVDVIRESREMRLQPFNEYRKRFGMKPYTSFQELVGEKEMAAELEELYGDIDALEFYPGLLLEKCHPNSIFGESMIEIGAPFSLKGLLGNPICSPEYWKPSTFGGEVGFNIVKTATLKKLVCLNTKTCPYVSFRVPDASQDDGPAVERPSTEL
Nature of the series: COX-1 inhibition, enzyme immunoassay (COX Inhibitor Screening Assay). In kind it is biochemical. The conditions noted are these: 2 min incubation. The protocol:
The incubation time of the compounds with the respective isoenzymes was exactly 2 min. The results are presented as the mean ± SD of three independent experiments with two replicates of each experiment.

The target of the next series is T2, human recombinant COX-2 (Homo sapiens, UniProt P35354).
T2 construct: purchased Cayman Chemicals
T2 sequence (P35354 18-604): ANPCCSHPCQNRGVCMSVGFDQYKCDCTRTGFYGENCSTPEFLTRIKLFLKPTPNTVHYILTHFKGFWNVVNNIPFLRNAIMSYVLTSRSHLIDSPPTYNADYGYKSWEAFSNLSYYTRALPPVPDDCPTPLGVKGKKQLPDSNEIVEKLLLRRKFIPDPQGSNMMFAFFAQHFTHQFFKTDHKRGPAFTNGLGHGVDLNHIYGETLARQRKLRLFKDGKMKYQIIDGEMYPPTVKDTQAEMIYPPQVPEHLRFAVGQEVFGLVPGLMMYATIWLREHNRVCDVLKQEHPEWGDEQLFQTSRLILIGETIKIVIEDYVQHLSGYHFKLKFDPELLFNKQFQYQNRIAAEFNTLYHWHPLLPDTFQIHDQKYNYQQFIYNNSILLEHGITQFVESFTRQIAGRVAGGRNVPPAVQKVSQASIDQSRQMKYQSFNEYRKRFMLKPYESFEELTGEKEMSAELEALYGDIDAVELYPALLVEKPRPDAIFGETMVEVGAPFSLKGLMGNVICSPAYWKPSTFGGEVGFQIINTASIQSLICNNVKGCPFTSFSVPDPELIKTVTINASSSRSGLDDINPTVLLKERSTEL
Nature of the series: COX-2 inhibition, enzyme immunoassay (COX Inhibitor Screening Assay). In kind it is biochemical. The conditions noted are these: 2 min incubation. The protocol:
Metal complexes containing an ASA moiety have been reported as inhibitors for COX-1/-2 previously.[4],[14],[40]−[44] […] Hereby, the isolated enzymes were treated with final concentrations of 10 and 25 μM of substances 1, 4, 5, and 6.
Inhibition of the isolated human recombinant COX-1 and COX-2 isoenzymes by the platinum complexes (10 and 25 μM) was evaluated using an enzyme immunoassay (EIA) (COX Inhibitor Screening Assay, Cayman Chemicals, Ann Arbor, Mi, USA) following the manufacturer’s protocol. The incubation time of the compounds with the respective isoenzymes was exactly 2 min. The results are presented as the mean ± SD of three independent experiments with two replicates of each experiment. The untreated control was set at 0% inhibition of the COX activity.

The conditions of series [6]: cited from earlier work.
The test system of series [7] is MDA-MB-231 breast cancer cell line. Nature of the series: MTT metabolic activity (cytotoxicity) assay, MDA-MB-231. Type of series: cell-based. The conditions noted are these: for IC50: MTT, 72 h incubation. The protocol:
as §2, §3, §4

In series [8] the test system is A2780cis ovarian carcinoma cell line (cisplatin-resistant). The experiment in a line: MTT metabolic activity (cytotoxicity) assay, A2780cis. In kind it is cell-based. Particulars: for IC50: MTT, 72 h incubation. The protocol: as §2, §3, §4
Setting [9] is: 25 μM, without compounds set at 100%.

Bounds are passed on as bounds.

The term IC50 denotes the concentration needed to halve the response being measured. A higher IC50 goes with weaker potency. A word on the inhibition: it is the percentage by which the read-out fell short of the control.

Take `C=C.NCCC(=O)[O][Pt][Cl]` [2b, (Ethylene,O-trans)(β-alaninato-N,O)chlorido(η^2-ethene)platinate(II)]: in series [1], the “half-life time (τ1/2) in water” value is 1.7 ± 0.2 h. For the same compound, the “half-life time (τ1/2) in TMG solution” value in series [2] is reported as 0.77 ± 0.08 h. The IC50 in series [3] and in series [4] was greater than 100 µM throughout. In series [5], the “coefficient of partition between buffer and micelles (k′), average” value is 3.099 ± 0.149.

`CC(=O)Oc1ccccc1C(=O)O` [ASA, acetylsalicylic acid, reference compound]: the inhibition at 10 µM at human recombinant COX-1 (10 μM) is 17.3%; on human recombinant COX-2 (10 μM) it was 9.33%.

As for `C=C.[Cl-].[Cl-].[Cl-].[K+].[Pt+2]` [ZS, potassium trichloro(ethylene)platinate(II), reference compound], the “% Inhibition COX-1” value on human recombinant COX-1 (10 μM) was 90.83%. The “% Inhibition COX-2” value on human recombinant COX-2 (10 μM) was found to be 8.30%. For the same compound, the “time to quantitative conversion to the trans-aquo complex after dissolution in water” value in series [6] (water) is reported as no more than 2 min.

As to `N.N.[Cl][Pt][Cl]` [cisplatin, reference compound], the IC50 in series [3] was found to be 29 ± 4.28 µM; in series [4] it was 13.9 ± 5.16 µM; in series [7], 13.3 ± 0.87 µM; in [8], 14.8 ± 1.23 µM. The “metabolic activity (residual) on MDA-MB-231” value in series [7] (setting [9]) is on record as 8.71%. For the same compound, in [8] (setting [9]), the “metabolic activity (residual) on A2780cis” value is given as 4.71%.

`C=C.NC(Cc1c[nH]cn1)C(=O)O.[Cl][Pt]` [compound 3, (L-Histidinato-N,N)chlorido(η^2-ethene)platinate(II)]: the “half-life time (τ1/2) in TMG solution” value in series [2] was determined as 12.0 ± 3.0 h. Also, the half-inhibitory concentration (IC50) in series [3] and in series [4] was greater than 100 µM each time. The “coefficient of partition between buffer and micelles (k′), average” value in [5] was 2.392 ± 0.185.

For the compound `C=CCCOC(=O)c1ccccc1OC(C)=O.[Cl][Pt-]([Cl])[Cl].[K+]` [compound 5, potassium {trichlorido[η^2-(but-3-en-1-yl)-2-acetoxybenzoate]platinate(II)}], the IC50 in series [7] and in series [8] was greater than 50 µM each time. For the same compound, the “% Inhibition COX-1” value on human recombinant COX-1 (10 μM) is 67.84 ± 10.57%; on human recombinant COX-1 (25 μM), 80.49 ± 11.10%. The “% Inhibition COX-2” value at human recombinant COX-2 (10 μM) came to 39.56%; at human recombinant COX-2 (25 μM) it was 63.10 ± 8.07%. Moreover, the “half-life in 50% methanolic solution” value in series [6] (50% methanolic solution, previously measured) was 69.6 ± 3.0 h.

For the compound `C=CCCOC(=O)c1ccccc1OC(C)=O` [compound 6, but-3-en-1-yl 2-acetoxybenzoate], the IC50 was greater than 50 µM in series [7] (Homo sapiens, MDA-MB-231) and greater than 50 µM in [8] (A2780cis). The inhibition at 10 µM on human recombinant COX-1 (10 μM) stood at 23.7 ± 9.86%; on human recombinant COX-2 (10 μM) it was 15.7 ± 14.8%. The inhibition at 25 µM on human recombinant COX-1 (25 μM) amounted to 16.4 ± 8.64%; on human recombinant COX-2 (25 μM) it was 16.9 ± 17.2%.

Source of the values: PMC10683014, “Amino Acids as Chelating Ligands for Platinum: Enhanced Stability in an Aqueous Environment Promoted by Biocompatible Molecules” (Journal of Medicinal Chemistry, 2023).
